# Source: patent US20080058210A1, “Method of isolating shikimic acid from a plant” (priority 2006, published 2008)
# Tested on: Express spring wheat
# Test: Field trial plots with glyphosate on Express spring wheat; shikimic acid in whole above ground plant by water extraction and HPLC
# Format: in vivo
# Procedure: Field trial plots with glyphosate on Express spring wheat were established at three treatment levels, untreated control, 4 oz formulated/acre, and 14 oz formulated/acre. Field site studies were conducted in eastern Washington, near Kennewick, Wash. There were buffer zones around each treat level and control plot. The whole above ground plant was harvested at time zero, 5, 10, 15, and 20 days after application. The samples were cooled immediately and frozen within one hour. The samples were received from the field and stored in the freezer at <−10 C. At the time of application plants were 8-10 inches tall, after 20 days the control plants were 20-24 inches and beginning to head out.
# Plant tissue was placed in an open container and dried at ca. 70 C overnight (14 to 16 hrs). Each sample was ground to pass through a 20 mesh screen. The ground sample was placed in a glass jar. Sealed samples may be stored at ≦−10 C for several months (the longest time tested). Approximately 150 mg of dry ground sample weight was placed into a screw cap bottle, 30 mL of DI water was added, and the bottle was capped and placed on a shaker overnight (14 to 16 hrs) at a minimum of 50 rpm. Extracts were filtered through a Whatman GF/A filter. For quantification, an aliquot was filtered (0.45 μm disposable) into an HPLC auto-sampler vial.
# HPLC analysis was performed on a Perkin-Elmer ISS 200. Instrument conditions were as follows: column 250×4.6 mm ALTEX Ultrasphere 5 μm ODS (or equivalent);mobile phase (isocratic) 50 mM KH2PO4 solution adjusted to pH 2.4; flow rate 2 mL/min, detector 214 nm. Calibration curves consisted of 1, 5, 10, 50, 100 and 200 μg/mL standards, r^2 values were ≧0.998. Retention time was ca. 2.0 min.
structure (smiles),measurement,setting,value
O=C(O)CNCP(=O)(O)O [glyphosate],"shikimic acid level, factor above normal","higher treat rate 14 oz formulated/acre, day-5",6
same,"shikimic acid level, factor above normal","higher treat rate 14 oz formulated/acre, day-10",10
same,shikimic acid level relative to normal,"higher treat rate 14 oz formulated/acre, through the study period of 20 days",remains elevated
same,shikimic acid level relative to normal,"low treat rate 4 oz formulated/acre, day 20",within normal levels
same,"shikimic acid level, factor above normal","low treat rate 4 oz formulated/acre, day-5 sampling",4
same,"shikimic acid level, factor above normal","low treat rate 4 oz formulated/acre, day-10",2
same,shikimic acid level relative to normal,"low treat rate 4 oz formulated/acre, day-15",nearly within normal range
